This is an account of results in patent publication US6172097A, “Spiro imidazoline compounds” (Adir et Compagnie, priority 1998, dated 2001).

The target in one assay is T1, α2-adrenergic receptors (Rattus norvegicus, UniProt P22909).
T1 construct: The membranes are prepared from the cerebral cortex of the rat; from tissue; host or cells: rat cerebral cortex membranes
T1 sequence (P22909 1-465): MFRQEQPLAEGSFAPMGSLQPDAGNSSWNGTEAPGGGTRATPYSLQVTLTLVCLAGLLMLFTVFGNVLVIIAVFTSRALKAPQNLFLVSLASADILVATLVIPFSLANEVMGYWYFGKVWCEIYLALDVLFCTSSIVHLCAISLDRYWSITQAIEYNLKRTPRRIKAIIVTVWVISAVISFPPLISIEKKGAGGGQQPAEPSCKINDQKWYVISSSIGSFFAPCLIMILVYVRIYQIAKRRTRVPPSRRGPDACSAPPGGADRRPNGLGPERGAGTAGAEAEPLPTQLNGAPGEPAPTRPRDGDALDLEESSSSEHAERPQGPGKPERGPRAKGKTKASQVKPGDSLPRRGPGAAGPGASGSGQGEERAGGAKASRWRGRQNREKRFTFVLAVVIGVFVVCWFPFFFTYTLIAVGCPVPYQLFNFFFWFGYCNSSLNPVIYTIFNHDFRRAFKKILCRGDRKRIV
The assay can be described thus: Affinity for α2-adrenergic receptors in the rat, competition with [3H]-RX 821,002 on cerebral cortex membranes. It is filed as binding. Conditions: 0.4 nM [3H]-RX 821,002, 60 minutes at 22° C, pH 7.5. The method, then: Determination of the Affinity For α2 -Adrenergic Receptors in the Rat
The affinity was determined by competition experiments with [^3 H]-RX 821,002. The membranes are prepared from the cerebral cortex of the rat and are incubated in triplicate with 0.4 nM [^3 H]-RX 821,002 and the product to be tested in a final volume of 1.0 ml, for 60 minutes at 22° C. The incubation buffer contains […] TRIS-HCl (pH 7.5), 1 mM EDTA and 100 μM GppNHp. The non-specific binding is determined using 10 μM phentolamine.
(§1) At the end of incubation, the incubation medium is filtered through WHATMAN GF/B filters impregnated with 0.1% of polyethyleneimine, and washed three times with 5 ml of cooled buffer. The radioactivity retained on the filters is determined by liquid scintillation counting. The binding isotherms are analysed by non-linear regression.

For assay [1], the target named is T2, noradrenaline reuptake sites (Rattus norvegicus, UniProt Q63380).
T2 construct: The membranes are prepared from the frontal cortex of the rat; from tissue; host or cells: rat frontal cortex membranes
The assay can be described thus: Affinity for noradrenaline reuptake sites in the rat, competition with [3H]-nisoxetine on frontal cortex membranes. It is filed as binding. The note with it: 2 nM [3H]-nisoxetine, 4 hours at 4° C, pH 7.4. On the procedure:
Determination of the Affinity For Noradrenaline Reuptake Sites in the Rat
The affinity was determined by competition experiments with [^3 H]-nisoxetine. The membranes are prepared from the frontal cortex of the rat and are incubated in triplicate with 2 nM [^3 H]-nisoxetine and the product to be tested in a final volume of 0.5 ml, for 4 hours at 4° C. The incubation buffer contains 50 mM TRIS-HCl (pH 7.4), 120 mM NaCl and 5 mM KCl. The non-specific binding is determined using 10 μM desipramine.
as §1

The next assay addresses T3, serotonin reuptake sites (Rattus norvegicus, UniProt P31652).
T3 construct: The membranes are prepared from the frontal cortex of the rat; from tissue; host or cells: rat frontal cortex membranes
As to the kind of experiment: Affinity for serotonin reuptake sites in the rat, competition with [3H]-paroxetine on frontal cortex membranes. It is filed as binding. Conditions: 0.25 nM [3H]-paroxetine, 2 hours at 25° C, pH 7.4. On the procedure:
Determination of the Affinity For Serotonin Reuptake Sites in the Rat
The affinity was determined by competition experiments with [^3 H]-paroxetine. The membranes are prepared from the frontal cortex of the rat and are incubated in triplicate with 0.25 nM [^3 H]-paroxetine and the cold ligand in a final volume of 0.4 ml, for 2 hours at 25° C. The incubation buffer contains 50 mM TRIS-HCl (pH 7.4), 120 mM NaCl and 5 mM KCl. The non-specific binding is determined using 10 μM citalopram.
as §1

In a further assay the test system is α2-adrenergic. Conditions: described in U.S. Pat. No. 5,017,584; cited from earlier work.
A further assay has as its system monoamine reuptake. The note with it: described in U.S. Pat. No. 5,017,584; cited from earlier work.

T2 sequence (Q63380 1-617): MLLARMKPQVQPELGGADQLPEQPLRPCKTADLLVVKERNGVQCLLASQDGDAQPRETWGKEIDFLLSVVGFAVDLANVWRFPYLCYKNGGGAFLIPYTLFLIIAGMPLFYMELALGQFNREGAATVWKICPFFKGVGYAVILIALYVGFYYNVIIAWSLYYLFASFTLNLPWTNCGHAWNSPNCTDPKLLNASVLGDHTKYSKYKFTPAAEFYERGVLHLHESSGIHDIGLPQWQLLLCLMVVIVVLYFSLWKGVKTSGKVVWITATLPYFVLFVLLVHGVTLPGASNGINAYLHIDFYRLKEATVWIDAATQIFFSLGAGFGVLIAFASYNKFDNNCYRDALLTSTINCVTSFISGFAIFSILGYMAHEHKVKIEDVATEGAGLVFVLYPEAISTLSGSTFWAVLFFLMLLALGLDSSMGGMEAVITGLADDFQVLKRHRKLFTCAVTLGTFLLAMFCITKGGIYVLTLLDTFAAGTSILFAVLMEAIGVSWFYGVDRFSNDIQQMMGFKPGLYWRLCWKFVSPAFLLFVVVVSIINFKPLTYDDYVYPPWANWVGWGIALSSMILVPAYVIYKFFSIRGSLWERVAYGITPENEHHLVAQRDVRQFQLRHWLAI
T3 sequence (P31652 whole entry): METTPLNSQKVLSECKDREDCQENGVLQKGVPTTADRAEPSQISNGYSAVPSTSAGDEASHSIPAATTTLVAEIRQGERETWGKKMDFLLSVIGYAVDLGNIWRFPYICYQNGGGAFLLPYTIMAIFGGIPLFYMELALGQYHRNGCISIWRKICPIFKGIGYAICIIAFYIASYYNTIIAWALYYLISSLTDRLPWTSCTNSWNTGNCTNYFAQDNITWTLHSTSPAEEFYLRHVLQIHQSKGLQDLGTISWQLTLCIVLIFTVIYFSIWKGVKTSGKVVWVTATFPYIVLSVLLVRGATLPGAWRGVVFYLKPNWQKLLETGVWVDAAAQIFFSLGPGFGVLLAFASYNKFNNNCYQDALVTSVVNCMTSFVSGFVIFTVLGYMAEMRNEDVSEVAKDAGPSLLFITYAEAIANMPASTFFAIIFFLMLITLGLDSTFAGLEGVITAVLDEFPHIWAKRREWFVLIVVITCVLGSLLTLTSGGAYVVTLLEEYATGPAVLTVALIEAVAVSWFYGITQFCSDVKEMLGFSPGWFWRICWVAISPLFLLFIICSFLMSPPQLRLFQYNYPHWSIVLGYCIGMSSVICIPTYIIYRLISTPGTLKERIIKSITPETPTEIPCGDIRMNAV

Take `C1=NC[C@@]2(CC[C@@H]3Cc4ccccc4C[C@H]3C2)N1` (relative stereo) [Example 1, Spiro[(1,3-diazacyclopent-1-ene)-5: 2'(S)-(trans-1',2',3',4',4'a(R),9',9'a(S),10'-octahydroanthracene)]fumarate and spiro [(1,3-diazacyclopent-1-ene)-5: 2'(R)-(trans-1',2',3',4',4'a(S),9',9'a(R),10'-octahydroanthracene)]fumarate]: the inhibition constant Ki is 10 nM at α2-adrenergic receptors, 200 nM in assay [1] and 15.8 nM at serotonin reuptake sites.
For the compound `C1=C(CC2=NCCN2)CCc2ccccc21` [napamezole], the “α2-adrenergic antagonist activity (in words)” value in the assay on α2-adrenergic is “α2-adrenergic antagonist activity”. Moreover, the “monoamine reuptake-blocking activity (in words)” value with monoamine reuptake is “monoamine reuptake-blocking activity”.
